The target of the assay is T1, rat adrenergic α1B receptor (Rattus norvegicus, UniProt P15823).
T1 construct: rat adrenergic α1B receptor obtained from Wistar Rat liver; from tissue; host or cells: Wistar Rat liver
T1 sequence (P15823 1-515): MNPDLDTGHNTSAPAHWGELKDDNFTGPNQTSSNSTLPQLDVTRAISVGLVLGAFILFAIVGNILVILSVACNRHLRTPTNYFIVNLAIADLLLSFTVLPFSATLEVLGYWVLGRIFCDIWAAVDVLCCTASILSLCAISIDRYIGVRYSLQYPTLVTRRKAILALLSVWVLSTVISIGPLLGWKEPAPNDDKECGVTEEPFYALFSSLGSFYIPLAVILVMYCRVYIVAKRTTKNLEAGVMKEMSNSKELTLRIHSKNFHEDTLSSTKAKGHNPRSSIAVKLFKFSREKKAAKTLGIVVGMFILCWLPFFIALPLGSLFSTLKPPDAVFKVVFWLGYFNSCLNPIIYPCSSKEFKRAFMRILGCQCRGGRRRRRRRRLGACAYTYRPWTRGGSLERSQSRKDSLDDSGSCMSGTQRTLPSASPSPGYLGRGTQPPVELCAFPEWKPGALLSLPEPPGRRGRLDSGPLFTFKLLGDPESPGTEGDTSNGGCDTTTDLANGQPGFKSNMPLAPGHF
The assay is described as follows: Adrenergic α1B radioligand binding ([3H]Prozosin). The arrangement: species or system Wistar Rat. The following applies: 0.1 μM ligand conc. The protocol:
To evaluate in radioligand binding assays the activity of compounds of the invention, rat adrenergic α1B receptor obtained from Wistar Rat liver [Garcia-S'ainz, J. A. et al., Biochem. Biophys. Res. Commun. (1992), 186:760; Michel, A. D. et al., Br. J. Pharmacol. (1989), 98:883] in a modified Tris-HCl buffer (50 mM Tris-HCl buffer, pH 7.4, 0.5 mM EDTA) was used. Compounds of the invention were incubated with 0.25 nM [^3H]Prozosin for 60 min at 25° C. Non-specific binding was estimated in the presence of 10 μM phentolamine. Receptor proteins were filtered and washed, the filters were then counted to determine [^3H]Prozosin specifically bound. Compounds were screened at 1 μM or lower, using 1% DMSO as vehicle. Compounds of the invention were tested in this biochemical assay. Biochemical assay results for representative compounds were presented as the percent inhibition of specific binding in Table 3.

The results in this text go back to patent US9045482B2, “Pyrido[4,3-B]indoles and methods of use” (Medivation Technologies, Inc., priority 2009, dated 2015).

As to `O=C(Cn1c2c(c3cccnc31)CN1CCCC1C2)N1CCCCC1` (centres unmarked) [Compound 37, 1-(piperidin-1-yl)-2-(8,9,9a,10-tetrahydro-5H-pyrido[3′,2′:4,5]pyrrolo[3,2-f]indolizin-11(7H)-yl)ethanone], the “Percent Inhibition of ligand binding Adrenergic α1B” value is 9%.
On to `O=C(Cn1c2c(c3cccnc31)C1CCCN1CC2)N1CCCCC1` (centres unmarked) [Compound 38, 1-(piperidin-1-yl)-2-(2,3,5,6-tetrahydro-1H-pyrido[3′,2′:4,5]pyrrolo[2,3-g]indolizin-7(11cH)-yl)ethanone], for which the “Percent Inhibition of ligand binding Adrenergic α1B” value was 8%.
